In patent US20060025485A1, “Hydroxybenazamide compounds for treatment of cancer” (priority 2004, published 2006):

Tests used:
in vitro [1] = details: human, BON cells
Method: (§1) Cells tested (H727 and BON) were harvested by trypsinization and plated at a cell density of 3,000 cells/well of each microtiter plate. Cells were grown for 4 hrs at 37° C., with 5% CO2 in a humidified incubator to allow cell attachment to occur before compound addition. […] 10 μl of each compound stock was added to duplicate microtiter plates for each cell line. The final concentration of DMSO in all wells was 1%. To test 200 μM, 2% DMSO was added to each well. Data was compared to the effect of 2% DMSO. All compounds were tested in duplicate. Cells were incubated with the test compounds for 72 hrs before reading the assay. Then processing and calculation were performed according to manufacturer's directions for Cell Titer Glo Assay (Promega, Madison, Wis.).

in vitro [2] = details: human, H727 cells
Method: as §1

Chromogranin A = experiment: Western analysis of chromogranin A, BON-raf cells treated with estradiol; format: cell-based, human
Method: Usually, carcinoid tumors secrete high levels of both chromogranin A and serotonin due to disregulated hormone production. Similarly, BON cells treated with control or estradiol, and BON-raf cells treated with control had high levels of the NE marker chromogranin A as determined by Western analysis. […] In addition, BON and BON-raf cells were tested for serotonin secretion by ELISA after treatment with control or estradiol.
Cell culture. Human pulmonary carcinoid cells (NCI-H727) were obtained from American Type Culture Collection (Manassas, Va.) and human pancreatic carcinoid tumor cells, BON a generous gift of Drs. Evers and Townsend (Parekh et al., 1994), were maintained in RPMI 1640 and D-MEM-F12 media (Life Technologies, Rockville, Md.) respectively supplemented with 10% Fetal Bovine Serum (Sigma, St. Louis, Mo.), 100 IU/ml penicillin and 100 μg/ml streptomycin (Life Technologies) in a humidified atmosphere of 5% CO2 in air at 37° C. The maintenance of BON-raf cells and the activation of Raf-1 were followed as described previously (Sippel et al., 2003; Sippel and Chen, 2002; McMahon, 2001).
Western blot analysis. Cellular extracts were prepared and quantified by BCA protein assay kit (Pierce, Rockford, Ill.) as previously described (Sippel et al., 2003). 30-50 μg of denatured proteins from each sample underwent electrophoresis on a SDS-polyacrylamide gel and transferred to a nitrocellulose membranes (Schleicher and Schuell, Keene, N.H.). Membranes were blocked for 1 hr in milk solution (1×PBS, 5% non-fat dry milk, 0.05% Tween-20) and then incubated at 4° C. overnight with primary antibodies. The following primary antibody dilutions were used: phospho-ERK 1/2 (1:1,000); phospho-MEK (1:1,000); phospho-Raf-1 (Serine338) (1:1,000); p21 and p18, (1:1,000); (Cell Signal Technology, Beverly, Mass.), Chromogranin A (1:2,000; Zymed Laboratories, San Francisco, Calif.); MASH-1 (1:1000, BD Pharmingen) and G3PDH (1:10,000; Trevigen, Gaithersburg, Md.). After primary antibody incubation, membranes were washed 3×5 min in PBS-T wash buffer (1×PBS, 0.05% Tween 20). […]

[3] = test system: c-Raf as well as MEK and ERK; details: human monocytic THP-1 cells; cited from earlier work

## COc1cccc2c1C(=O)c1c(O)c3c(c(O)c1C2=O)C[C@@](O)(C(=O)CO)C[C@@H]3O[C@H]1C[C@H](N)[C@H](O)[C@H](C)O1 [Doxorubicin]
In vitro [1]
  IC50 at 72 h: 1400 nM
In vitro [2]
  IC50 at 72 h: 1100 nM

## C[C@]12CC[C@@H]3c4ccc(O)cc4CC[C@H]3[C@@H]1CC[C@@H]2O [Estradiol]
Chromogranin A; 2 days
  reduction of chromogranin A levels: 31%
Chromogranin A; 4 days
  reduction of chromogranin A levels: 68%
Chromogranin A; 6 days
  reduction of chromogranin A levels: 50%

## COc1nccc(-c2c(-c3ccc(F)cc3)ncn2C2CCC(O)CC2)n1 (stereo not drawn) [SB239063]
[3]
  activation of c-Raf, MEK and ERK: activates c-Raf as well as MEK and ERK
